These results are taken from US20070049626A1, “Treating premature ejaculation using gabapentin and pregabalin prodrugs” (priority 2005, published 2007).

The test system of data set [1] is PCA-induced ejaculation in anaesthetized rats. Kind of data set: p-chloroamphetamine (PCA)-induced ejaculation in anaesthetized rats. In kind it is in vivo, rat. To be noted: for effect on PCA-induced ejaculation: 1, 3, 10 or 30 mg/kg po, 60 min prior to PCA; for quality of erection: PCA model; for ejaculatory latency: doses above 3 mg/kg po, excipient-only about 300 s. As for the experimental part:
(§1) For all the sexual behavior tests, the rapid ejaculating Sprague Dawley rats, weighing 350-450 g, are used as an animal model of premature ejaculation (classified as ejaculatory latency <300 s during baseline assessment). Prior to the experiments the animals are housed in groups (2 rats per cage) under controlled 12 h light-dark cycle (lights on at 07:00), constant temperature (23±1° C.), and humidity (55±5%). The animals are given free access to standard food pellets and water.
The compounds are dosed orally by taking the tablets of Examples 1 and 2, finely crushing them and suspending the resulting powder in an aqueous vehicle for oral administration to rats by gavage. Compounds (100) and (101) are tested at 1, 3, 10 or 30 mg/kg po, 60 min prior to PCA administration. Compounds (100) and (101) each dose-dependently increases ejaculatory latency by up to 250%. As a baseline comparison, some of the rats are given a placebo formulation similar to Examples 1 and 2, but containing no prodrug.

For data set [2], the system named is rapid ejaculating Sprague Dawley rats. Kind of data set: Copulatory behavior in rapid ejaculating conscious rats (model of premature ejaculation). Type of data set: in vivo, rat. To be noted: rapidly-ejaculating conscious rats; for other effects on copulatory behavior: 10 mg/kg oral; for increase of ejaculatory latency / ejaculatory latency (time to ejaculate): 10 mg/kg, 60 min post oral dosing; for increase of ejaculatory latency: P<0.01; for ejaculatory latency (time to ejaculate): excipient-only about 140 s. As to the method: as §1
The rats are placed in an observation arena (50-60 cm diameter), starting 5 hours into the dark cycle and observed under red illumination. Three to four minutes after placing the male in the arena, a receptive female (ovariectomised, oestradiol benzoate/progesterone injection 48 hour before behavioral study) is introduced into the arena and the following parameters are noted: (i) ejaculatory latency (EJL; time taken from addition of receptive female into the arena to ejaculation); (ii) copulatory efficiency (CE; ejaculatory latency/the number of intromissions to ejaculation, i.e., the number of seconds between intromissions); (iii) intromission frequency (IF; the number of intromissions to ejaculation); (iv) mount frequency (MF; the number of mounts to ejaculation); (v) post ejaculatory interval (PEI; the time taken from ejaculation to the commencement of copulatory behavior).
Rodent copulatory behavior is characterized by a series of mounts, with and without vaginal insertion (50-80% of mounts result in intromission (vaginal penetration)) and ejaculation occurs after 6 to 12 intromissions. Each intromission lasts a matter of seconds—it is not possible to quantify intromission length i.e., intravaginal latency. The effect of compounds (100) and (101) is assessed on a number of copulatory parameters (see above). We are focusing on ejaculatory latency as an objective clinical outcome measure of time taken to achieve ejaculation. The study is performed in rapid ejaculating rats as a model of premature ejaculation (rats characterized by ejaculatory latency <300 s at baseline). Compound (100) and (101) increases ejaculatory latency by 58% in rapidly-ejaculating conscious rats (P<0.01), i.e., compound (100) and (101) (each to be dosed at 10 mg/kg, 60 min post oral dosing)-treated animals take about 200 s to ejaculate compared to about 140 s in excipient-only treated animals.

A short description of data set [3]: Tmax after oral administration of immediate release formulation. In kind it is in vivo. The settings on record: human, blood, following oral administration. An excerpt:
The compounds disclosed herein, for example, the gabapentin prodrug 1-{[(α-isobutanoyloxyethoxy)carbonyl]aminomethyl}-1-cyclohexane acetic acid, is more efficacious than the parent drug molecule (i.e., gabapentin) in treating premature ejaculation because the disclosed compounds require less time to reach a therapeutic concentration in the blood, i.e., the compounds disclosed herein have a shorter Tmax than their gabapentin or pregabalin “counterparts” when taken orally. […] This provides an advantage over the parent drugs (i.e., gabapentin and pregabalin) in that the patient need not wait as long after administering the prodrugs before a therapeutic concentration of the active parent drug in the blood is reached. Thus, the prodrugs disclosed herein allow the patient to dose shortly before sexual activity, allowing sexual activity to occur with more spontaneity, compared to dosing of either gabapentin or pregabalin.

In the case of `CC(OC(=O)NCC1(CC(=O)O)CCCCC1)OC(=O)C(C)C` (stereo not drawn) [Compound (100), 1-{[(α-Isobutanoyloxyethoxy)carbonyl]aminomethyl}-1-Cyclohexane Acetic Acid], in data set [1], the “effect on PCA-induced ejaculation” value is “significantly delays”, the quality of erection result is “not influenced” and the ejaculatory latency result is reported as “about 1000 s”. Also, in data set [2], the “other effects on copulatory behavior” value is “no other significant effects”, the “increase of ejaculatory latency” value turned out to be 58% and the “ejaculatory latency (time to ejaculate)” value is reported as “about 200 s”.

Turning to `CC(C)CC(CNC(=O)OC(C)OC(=O)C(C)C)CC(=O)O` (stereo not drawn) [Compound (101), 3-{[(α-Isobutanoyloxyethoxy)carbonyl]aminomethyl}-5-methyl Hexanoic Acid], in data set [1], the “effect on PCA-induced ejaculation” value is given as “significantly delays”, the quality of erection entry is on record as “not influenced” and the ejaculatory latency entry is reported as “about 1000 s”. Also, in data set [2], the “other effects on copulatory behavior” value is recorded as “no other significant effects”, the “increase of ejaculatory latency” value was found to be 58% and the “ejaculatory latency (time to ejaculate)” value is “about 200 s”.

The term Tmax denotes the time at which the peak concentration occurs. Consider `NCC1(CC(=O)O)CCCCC1` [gabapentin], for which the Tmax in data set [3] lay within 2.8 to 3.3 h.
